{"source": "the supplement of paper PMC11061612", "assay_in_all_cases": "Bliss excess, mean over the matrix (fraction); higher = more synergy", "key": {"[1]": {"test_system": "EB-3 (Burkitt's Lymphoma)", "procedure,_shortened": "(§1)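 Cell lines grown in DMEM/F12 or RPMI with 10% FBS were plated in 1536-well plates and held 24 hours at 37°C, 5% CO2 before 72 hours of exposure to two-drug dose matrices, with DMSO typically at 0.2%. CellTiter-Glo 2.0 luminescence gave viability, which was converted to inhibition. Vehicle wells were set to 0 and blank wells to 1. Combination Emax is the second-highest inhibition in the matrix, and Bliss excess is the observed combination effect minus the expected EA + EB − EA·EB, where EA and EB are the single-agent effects.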"}, "[2]": {"test_system": "FLO-1 (Esophageal Adenocarcinoma)", "procedure,_shortened": "as §1"}, "[3]": {"test_system": "HCC-44 (Lung Adenocarcinoma)", "procedure,_shortened": "as §1"}, "[4]": {"test_system": "NKM-1 (Acute Myeloid Leukemia)", "procedure,_shortened": "as §1"}, "[5]": {"test_system": "PANC-02-03 (Pancreatic Carcinoma)", "procedure,_shortened": "as §1"}, "[6]": {"test_system": "SW684 (Other Solid Carcinomas)", "procedure,_shortened": "as §1"}}}
{"compound": "CS(=O)(=O)CCNCc1ccc(-c2ccc3ncnc(Nc4ccc(OCc5cccc(F)c5)c(Cl)c4)c3c2)o1", "note": "[Lapatinib] + NC1(c2ccc(-c3nc4ccn5c(=O)[nH]nc5c4cc3-c3ccccc3)cc2)CCC1 [MK-2206] (first compound max 10 µM, 7x7, partner max 10 µM)", "values": [{"measurement": "Bliss excess", "setting": "[1]", "result": -0.0251}, {"measurement": "Bliss excess", "setting": "[2]", "result": -0.0401}, {"measurement": "Bliss excess", "setting": "[3]", "result": 0.005}, {"measurement": "Bliss excess", "setting": "[4]", "result": 0.0174}, {"measurement": "Bliss excess", "setting": "[5]", "result": -0.0011}, {"measurement": "Bliss excess", "setting": "[6]", "result": 0.0223}]}
